Source: PMC10788856, “Mimicking Nonribosomal Peptides from the Marine Actinomycete Streptomyces sp. H-KF8 Leads to Antimicrobial Peptides” (ACS Infectious Diseases, 2023)
Numbered stars: 1 amine (or outer) side, 2 acyl side, 3 side chain; on linkers, the order of the positions; unused ones are H or OH. Bridge positions count the residues as written; N and C are the ends. Square brackets hold non-standard residues; d marks the D form. Peptide text beside a SMILES is read from it. Tyr(3-NO2) = N[C@@H](Cc1ccc(O)c([N+](=O)[O-])c1)C(=O)O; Glutaryl = O=C(CCCC(=O)[*:2])[*:1]; Orn = NCCC[C@H](N)C(=O)O

Experiments:
[1] = test system: Escherichia coli (CCUG 31246); experiment: Minimum microbicidal concentration (MMC99) assay; format: cell-based, E. coli; details: BHI diluted 1/100
Description: The microbicidal activity of the synthetic peptides was assessed against S. aureus (ATCC 12600; American Type Culture Collection, Manassas, VA, USA), Escherichia coli (CCUG 31246; Culture Collection, University of Gothenburg, Sweden), and Candida albicans (ATCC 64549/CCUG31028) using an MMC assay, as described previously by […] et al. (specific details in Supporting Information, pages 10, 11).[28] The assay was performed in BHI diluted 1/100 (BHI100). […] page 11: Table S5. Energy and structural ensembles of synthesized peptides. […] Energy -3887.06 -3620.88 -4968.42 -2163.76 -2646.75 Van der Waals solv. Energy 117.32 91.57 183.20 -88.88 -139.89 Mean RMSD* (Å), mean±SD […] Heavy atoms 1.87 ± 0.33 1.77 ± 0.50 0.98 ± 0.34 0.63 ±0.22 2.88 ±0.62 MMC99 activity including salt stability measurements Antimicrobial activity of L2 and L3 in the presence of NaCl. 1Table S6. Peptide MMC99 (μg/ml) sin NaCl S. aureus E.coli C. albicans (mM) 2[…] 0 50 25 25 85 - - - - - - >200 >200 >200 150 - - - - - - >200 >200 >200 3L 0 12.5 12.5 25 12,5 6.3 6.3 12.5 6.3 12.5 […] 150 >400 >400 (-)2 >400 >400 >400 >200 >200 >200 […] or 150 mM NaCl. L2 and L3 were serially diluted in twofold steps with a starting dilution of 200 μg/ml […] All sample dilutions were run in duplicates (L2) or triplicates (L3). 2 The growth of S. aureus at 24 h in BHI 100 with 85 or 150 mM NaCl was reduced. Minimum microbicidal concentration (MMC), killing 99% of the inoculum. All microorganisms were cultured in brain-heart infusion broth (BHI) overnight on a shaker at 37°C. The cultures were thereafter transferred to fresh BHI broth in volumes constituting 10% of total, and incubated for an additional 2 h to reach exponential growth phase. The bacterial cultures were washed once in BHI diluted 1/100 (BHI100), followed by resuspension in BHI100. The cell suspensions were diluted to a density of […] (bacteria) or 2x10^7 CFU/ml (yeast), as estimated by optical density measurement at 590 nm. […] Serum stability Figure S 133. […] A) peptide L2 B) peptide L3. C) peptide L3-K. D) peptide C3.

[2] = test system: hepatoblastoma (HepG2) cells; format: cell-based, human
Description: (§1) To confirm the peptide selectivity toward bacteria cells, cytotoxicity assays of synthesized peptides L2, L3, L3-K, and C3 against human embryonic kidney (HEK) and hepatoblastoma (HepG2) were performed (Figure 4). The cell viability was assessed using resazurin 24 h post peptide exposure. The line at 70% cell viability marks out the threshold for cytotoxic potential compared to the negative control.
(§2) Figure 4 Cell viability assessment using the resazurin assay 24 h post peptide exposure: (a) HepG2 and (b) HEK cells were treated with various concentrations of the peptides C3, L3, L3-K, and L2. Triton-X was used as a positive control. Cells cultured in pure cell media were used as negative controls and were considered to have 100% cell viability. The line represents the threshold for cytotoxicity level of 70% of cell viability compared to the negative control. Data are presented as the mean ± SD of three biological replicates of the HepG2 cells and the mean ± SD of two biological replicates of the HEK cells.
(§3) Cytotoxicity against human embryonic kidney (HEK) and hepatoblastoma (HepG2) cell lines was assessed. Cells were grown to an initial seeding density of 10 000 cells per well. Metabolic activity was determined in a resazurin-based assay. HEK and HepG2 cells were exposed to four different concentrations of the peptides for 24 h. Treatment with Triton X-100 at 1% v/v was used as a positive control. Following this exposure period, the cells were treated with resazurin at a final concentration of 0.015 mg/mL for 3 h. The metabolic activity was then determined in an resazurin-based assay. The fluorescence intensities were quantified in a Hidex Sense microplate reader using an excitation wavelength of 544 nm and an emission wavelength of 590 nm.

[3] = test system: human embryonic kidney (HEK) cells; format: cell-based
Description: as §1, §2, §3

[4] = test system: E. coli CCUG31246; experiment: Propidium iodide staining (pore formation); format: cell-based
Description: Due to the overall similarity of the peptides’ cytological profiles to that of polymyxin B, we further tested their ability to form pores in the cell membrane. To this end, we used the fluorescence probe propidium iodide, which cannot cross intact membranes but can enter cells through pores of sufficient size.[39]
Pore formation was investigated with the fluorescence dye propidium iodide as described previously[56] with minor modifications. E. coli CCUG31246 was grown to an OD600 of 0.3 and subsequently treated with different peptides for 10 and 60 min. Samples were stained with 1 μg/mL propidium iodide for 15 min (added 5 min before adding antibiotics for the 10 min time point and after 45 min of antibiotic treatment for the 60 min time point), spotted on 1.2% agarose films, and sealed with a gene frame. Microscopy was performed as described above. The fluorescence intensity of the different samples was analyzed with MicrobeJ. For detection of bacterial cells from phase contrast images, parameters were set to an area of 1.5-max, length of 1-max, width 0.5–2.5, curvature 0–1.5, and an angularity of 0–0.5. Fluorescence intensity parameters were set to an area of 1.5-max, length of 1-max, and width 0.5–2.5. All other parameters remained at default settings.

[5] = test system: E. coli MC4100 pABCON2-fhuA ΔC/Δ4L; experiment: DiSC(3)5 microscopy (membrane potential), outer membrane permeable strain; format: cell-based; details: 1× MIC; 10 and 60 min; 0.5 μM DiSC(3)5
Description: To test this hypothesis, we employed an E. coli strain that overexpresses the outer membrane porin FhuA, making these cells more permeable to most fluorescence dyes including DiSC(3)5.[41]
The membrane potential of E. coli CCUG31246 and E. coli MC4100 carrying pABCON2-fhuA ΔC/Δ4L was measured by DiSC(3)5 microscopy according to ref. ([40]) with minor modifications. Cells were grown in 1:10 BHI containing 50 μg/mL bovine serum albumin to an OD600 of 0.3 prior to antibiotic treatment with the respective peptides for 10 and 60 min. Samples were stained with 0.5 μM DiSC(3)5 for 15 min (added 5 min before adding antibiotics for the 10 min time point and after 45 min of antibiotic treatment for the 60 min time point). Stained samples were spotted on 1.2% agarose, sealed with a gene frame, and imaged immediately. Microscopy was performed as described above, and fluorescence intensity was analyzed with the same parameters used for propidium iodide detection.

CC(C)[C@H]1NC(=O)[C@H](CCCN)NC(=O)[C@H]([C@@H](C)O)NC(=O)[C@H](CCCN)NC(=O)[C@H](Cc2c[nH]c3ccccc23)NC(=O)[C@@H](C)NC(=O)[C@@H](C(C)C)NC(=O)[C@@H](C)NC(=O)[C@H](Cc2c[nH]c3ccccc23)NC(=O)CCCC(=O)NCCCC[C@@H](C(N)=O)NC(=O)[C@H](Cc2ccc(O)c([N+](=O)[O-])c2)NC1=O [C3] (W[dA][dV][dA]W[Orn]T[Orn][dV][Tyr(3-NO2)]K-NH2; linker N-11 via Glutaryl)
active concentrations against E. coli (MMC99, text) [1]: ≥ 100 µg/mL | E. coli MMC99 2 h ([1]; 37 °C, 2 h, median, n = 3): >100 µg/mL | E. coli MMC99 6 h ([1]; 37 °C, 6 h, median, n = 3): >100 µg/mL | E. coli MMC99 24 h ([1]; 37 °C, 24 h, median, n = 3): 100 µg/mL | cytotoxicity, cell viability HepG2 [2]: at the highest tested concentration seems to have cytotoxic properties | cytotoxicity, cell viability HEK [3]: at the highest tested concentration seems to have cytotoxic properties | cells remaining unstained by propidium iodide after 60 min ([4]; 1× MIC (64 μg/mL L3, 128 μg/mL L3-K, 512 μg/mL C3), 60 min, 1 μg/mL propidium iodide): 64% | propidium iodide uptake ([4]; 1× MIC of peptide, polymyxin B 10 μg/mL, 10 and 60 min): only a small subpopulation of cells | membrane depolarization in the FhuA-overexpressing strain [5]: stronger depolarization in the FhuA-overexpressing strain
